Test results taken from ChEMBL document CHEMBL2086254, “Synthesis and identification of novel indolo[2,3-a]pyrimido[5,4-c]carbazoles as a new class of anti-cancer agents” (Eur J Med Chem, 2012).
Active and inactive are the calls of the source. No cut-off for these calls is given here.

Columns and labels:
[1] = system: MDA-MB-468; assay: Cytotoxicity against human MDA-MB-468 cells assessed as cell growth at 10 uM after 48 hrs by SRB assay relative to control; type: functional; conditions: MDA-MB-468, 48 h, read-out: Activity
[2] = system: OVCAR-5; assay: Cytotoxicity against human OVCAR5 cells assessed as cell growth at 10 uM after 48 hrs by SRB assay relative to control; type: functional; conditions: OVCAR-5, 48 h, read-out: Activity
[3] = system: SN12C; assay: Cytotoxicity against human SN12C cells assessed as cell growth at 10 uM after 48 hrs by SRB assay relative to control; type: functional; conditions: read-out: Activity
[4] = target: DNA topoisomerase 2-alpha (Homo sapiens) (UniProt P11388); assay: Inhibition of human DNA topoisomerase 2 at 100 uM after 1 hr by agarose gel circular DNA decatenation assay
[5] = system: EKVX; assay: Cytotoxicity against human EKVX cells assessed as cell growth at 10 uM after 48 hrs by SRB assay relative to control; type: functional; conditions: read-out: Activity
[6] = system: CAKI-1; assay: Cytotoxicity against human Caki1 cells assessed as cell growth at 10 uM after 48 hrs by SRB assay relative to control; type: functional; conditions: CAKI-1, 48 h, read-out: Activity
[7] = system: CCRF-CEM; assay: Cytotoxicity against human CCRF-CEM cells assessed as cell growth at 10 uM after 48 hrs by SRB assay relative to control; type: functional; conditions: read-out: Activity
[8] = system: HL-60; assay: Cytotoxicity against human HL60 cells assessed as cell growth at 10 uM after 48 hrs by SRB assay relative to control; type: functional; conditions: HL-60, 48 h, read-out: Activity
[9] = system: NCI-H522; assay: Cytotoxicity against human NCI-H522 cells assessed as cell growth at 10 uM after 48 hrs by SRB assay relative to control; type: functional; conditions: NCI-H522, 48 h, read-out: Activity
[10] = system: HT-29; assay: Cytotoxicity against human HT-29 cells assessed as cell growth at 10 uM after 48 hrs by SRB assay relative to control; type: functional; conditions: HT-29, 48 h, read-out: Activity
[11] = system: KM12; assay: Cytotoxicity against human KM12 cells assessed as cell growth at 10 uM after 48 hrs by SRB assay relative to control; type: functional; conditions: KM12, 48 h, read-out: Activity
[12] = system: ACHN; assay: Cytotoxicity against human ACHN cells assessed as cell growth at 10 uM after 48 hrs by SRB assay relative to control; type: functional; conditions: read-out: Activity
[13] = system: SR; assay: Cytotoxicity against human SR cells assessed as cell growth at 10 uM after 48 hrs by SRB assay relative to control; type: functional; conditions: read-out: Activity
[14] = system: MOLT-4; assay: Cytotoxicity against human MOLT4 cells assessed as cell growth at 10 uM after 48 hrs by SRB assay relative to control; type: functional; conditions: MOLT-4, 48 h, read-out: Activity
[15] = system: NCI-H226; assay: Cytotoxicity against human NCI-H226 cells assessed as cell growth at 10 uM after 48 hrs by SRB assay relative to control; type: functional; conditions: NCI-H226, 48 h, read-out: Activity
[16] = system: NCI-H460; assay: Cytotoxicity against human NCI-H460 cells assessed as cell growth at 10 uM after 48 hrs by SRB assay relative to control; type: functional; conditions: NCI-H460, 48 h, read-out: Activity
[17] = system: HCC 2998; assay: Cytotoxicity against human HCC2998 cells assessed as cell growth at 10 uM after 48 hrs by SRB assay relative to control; type: functional; conditions: HCC 2998, 48 h, read-out: Activity
[18] = system: SF-539; assay: Cytotoxicity against human SF539 cells assessed as cell growth at 10 uM after 48 hrs by SRB assay relative to control; type: functional; conditions: SF-539, 48 h, read-out: Activity
[19] = system: OVCAR-4; assay: Cytotoxicity against human OVCAR4 cells assessed as cell growth at 10 uM after 48 hrs by SRB assay relative to control; type: functional; conditions: OVCAR-4, 48 h, read-out: Activity
[20] = system: UACC-62; assay: Cytotoxicity against human UACC62 cells assessed as cell growth at 10 uM after 48 hrs by SRB assay relative to control; type: functional; conditions: UACC-62, 48 h, read-out: Activity
[21] = system: MDA-MB-231; assay: Cytotoxicity against human MDA-MB-231 cells assessed as cell growth at 10 uM after 48 hrs by SRB assay relative to control; type: functional; conditions: MDA-MB-231, 48 h, read-out: Activity
[22] = system: OVCAR-8; assay: Cytotoxicity against human OVCAR8 cells assessed as cell growth at 10 uM after 48 hrs by SRB assay relative to control; type: functional; conditions: OVCAR-8, 48 h, read-out: Activity
[23] = system: NCI-H322M; assay: Cytotoxicity against human NCI-H322M cells assessed as cell growth at 10 uM after 48 hrs by SRB assay relative to control; type: functional; conditions: read-out: Activity
[24] = system: COLO 205; assay: Cytotoxicity against human COLO205 cells assessed as cell growth at 10 uM after 48 hrs by SRB assay relative to control; type: functional; conditions: COLO 205, 48 h, read-out: Activity
[25] = system: 786-0; assay: Cytotoxicity against human 786-0 cells assessed as cell growth at 10 uM after 48 hrs by SRB assay relative to control; type: functional; conditions: 786-0, 48 h, read-out: Activity

Sequence of DNA topoisomerase 2-alpha (Homo sapiens) (P11388 whole entry): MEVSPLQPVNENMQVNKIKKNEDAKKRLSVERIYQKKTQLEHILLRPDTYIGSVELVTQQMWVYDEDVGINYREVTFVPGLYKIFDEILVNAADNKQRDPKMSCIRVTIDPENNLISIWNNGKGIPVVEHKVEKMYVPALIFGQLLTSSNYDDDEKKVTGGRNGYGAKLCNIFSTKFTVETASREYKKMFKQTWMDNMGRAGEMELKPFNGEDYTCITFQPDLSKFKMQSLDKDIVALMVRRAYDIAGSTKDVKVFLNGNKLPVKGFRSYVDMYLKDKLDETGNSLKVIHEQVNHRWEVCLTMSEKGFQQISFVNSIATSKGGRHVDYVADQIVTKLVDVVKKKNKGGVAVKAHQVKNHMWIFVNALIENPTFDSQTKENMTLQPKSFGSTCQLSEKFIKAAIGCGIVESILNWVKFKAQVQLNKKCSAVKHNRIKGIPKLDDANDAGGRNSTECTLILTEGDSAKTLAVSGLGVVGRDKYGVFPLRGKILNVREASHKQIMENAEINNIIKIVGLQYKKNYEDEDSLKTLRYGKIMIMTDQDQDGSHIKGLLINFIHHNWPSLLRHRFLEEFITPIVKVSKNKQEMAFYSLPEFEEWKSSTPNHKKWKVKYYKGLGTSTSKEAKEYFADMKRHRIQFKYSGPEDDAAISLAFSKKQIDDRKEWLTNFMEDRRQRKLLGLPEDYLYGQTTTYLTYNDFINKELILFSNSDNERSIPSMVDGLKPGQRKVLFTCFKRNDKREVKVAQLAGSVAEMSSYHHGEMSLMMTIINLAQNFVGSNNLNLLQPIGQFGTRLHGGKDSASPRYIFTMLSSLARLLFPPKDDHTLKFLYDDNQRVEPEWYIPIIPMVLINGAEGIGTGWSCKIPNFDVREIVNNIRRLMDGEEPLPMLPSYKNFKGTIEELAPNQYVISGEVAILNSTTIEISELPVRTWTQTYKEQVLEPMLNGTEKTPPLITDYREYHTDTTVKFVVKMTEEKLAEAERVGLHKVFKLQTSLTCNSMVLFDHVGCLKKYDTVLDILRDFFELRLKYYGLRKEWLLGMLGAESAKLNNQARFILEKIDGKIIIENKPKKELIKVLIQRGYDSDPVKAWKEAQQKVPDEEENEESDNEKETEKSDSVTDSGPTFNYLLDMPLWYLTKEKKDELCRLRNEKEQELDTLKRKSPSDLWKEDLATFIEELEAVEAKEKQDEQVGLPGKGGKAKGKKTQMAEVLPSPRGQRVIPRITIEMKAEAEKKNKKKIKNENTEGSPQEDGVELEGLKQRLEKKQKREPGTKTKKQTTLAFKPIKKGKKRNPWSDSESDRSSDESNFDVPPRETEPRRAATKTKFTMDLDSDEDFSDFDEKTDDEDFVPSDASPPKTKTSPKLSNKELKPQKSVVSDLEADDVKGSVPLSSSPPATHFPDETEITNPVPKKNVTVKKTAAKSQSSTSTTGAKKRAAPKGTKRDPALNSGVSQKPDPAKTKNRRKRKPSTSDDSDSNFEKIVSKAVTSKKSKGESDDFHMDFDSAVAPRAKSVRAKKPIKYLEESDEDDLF

inhibition [4] | Structure (SMILES) | growth at 10 µM [1] | growth at 10 µM [2] | growth at 10 µM [3] | growth at 10 µM [5] | growth at 10 µM [6] | growth at 10 µM [7] | growth at 10 µM [8] | growth at 10 µM [9] | growth at 10 µM [10] | growth at 10 µM [11] | growth at 10 µM [12] | growth at 10 µM [13] | growth at 10 µM [14] | growth at 10 µM [15] | growth at 10 µM [16] | growth at 10 µM [17] | growth at 10 µM [18] | growth at 10 µM [20] | growth at 10 µM [22] | also measured
inactive | Cn1c2ccccc2c2c3c(=O)[nH]c(N)nc3c3c4cccnc4n(C)c3c21 | 75.1% | 98.8% | 91% | 82.2% | 60.1% | 65.3% | 72.8% | 35% | 78% | 59% | 54.1% | 63.3% | 74.4% | 65% | 65.5% | 104% | 111% | 87% | 60.1% | growth at 10 µM [19]: 80.1%; growth at 10 µM [21]: 79.4%
 | Cn1cc(-c2c(-c3cn(C)c4ncccc34)nc(N)[nH]c2=O)c2ccccc21 | 116% | 106% | 104% | 96.3% | 90% | 92.5% | 105% | 88% | 98.5% | 102% | 87.6% | 90.4% | 97.1% | 84.2% | 98.4% | 109% | 104% | 97% | 95.8% | growth at 10 µM [23]: 95.3%; growth at 10 µM [24]: 106%; growth at 10 µM [19]: 88%; growth at 10 µM [21]: 96.4%; growth at 10 µM [25]: 106%
inactive | Cn1cc(-c2[nH]c(=O)[nH]c(=O)c2-c2cn(C)c3ccccc23)c2ccccc21 | 88.5% |  | 110% | 68.7% | 68.6% | 87.6% |  | 93.1% |  | 93.3% | 92.5% |  |  | 86.2% | 88.2% | 109% | 111% | 88.3% | 98.1% | growth at 10 µM [23]: 105%; growth at 10 µM [24]: 96.3%; growth at 10 µM [25]: 111%
